PubChem BioAssay AID2767 (The Scripps Research Institute Molecular Screening Center, 2010)
Activity calls are given as the source filed them. No rule for the calls is given here.

Molecular target: TEM-1 beta-lactamase (Escherichia coli) (UniProt Q932Y6)
Experiment: TEM-1 beta-lactamase inhibitor potency, late-stage follow-up, counter-screen for dual metallo-beta-lactamase inhibitor project, biochemical, epi-absorbance, IC50 (AID 2767)
Conditions: nitrocefin absorbance

TEM-1 beta-lactamase (Escherichia coli), sequence (Q932Y6 1-286): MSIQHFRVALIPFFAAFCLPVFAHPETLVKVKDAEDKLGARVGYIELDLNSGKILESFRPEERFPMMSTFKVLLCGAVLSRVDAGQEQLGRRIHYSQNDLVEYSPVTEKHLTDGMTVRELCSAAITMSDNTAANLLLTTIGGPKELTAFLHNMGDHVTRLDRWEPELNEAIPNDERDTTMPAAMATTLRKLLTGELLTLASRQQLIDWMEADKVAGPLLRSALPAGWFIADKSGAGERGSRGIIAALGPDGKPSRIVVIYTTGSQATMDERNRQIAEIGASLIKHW

Row | SMILES | IC50
1 | CC(=O)Nc1cc[c]([Hg+])cc1 | > 59.6 µM (inactive)
2 | [Hg+][c]1ccccc1 | > 59.6 µM (inactive)
3 | O=C(O)c1cc[c]([Hg][Cl])cc1 | > 59.6 µM (inactive)
4 | O=C(O)c1ccc[c]([Hg+])c1 | > 59.6 µM (inactive)
5 | Cc1cc[c]([Hg+])cc1 | > 59.6 µM (inactive)
6 | COc1cccc[c]1[Hg+] | > 59.6 µM (inactive)
